# According to publication PMC10824489 (Journal of medicinal chemistry, 2023):
# Entries after “also recorded” stand apart in the source; their conditions may differ.
# Tests used:
# RPE65 [1] = target: RPE65 (Bos taurus, UniProt Q28175); assay: RPE65 activity assay in vitro; type: biochemical, bovine; conditions: for inhibition of RPE65 in vitro: concentration range 0.1-50 μM
# RPE65 [2] = target: T1, RPE65 (Mus musculus, UniProt Q91ZQ5); conditions: 10 mg/kg IP; for RPE65 inhibition in vivo (in words): BALB/cJ mice; for 11cRAL level in eye / RE level in eye: four hours of dark adaptation after light exposure, mean ± SD, n=3
# T1 sequence (Q91ZQ5 1-533): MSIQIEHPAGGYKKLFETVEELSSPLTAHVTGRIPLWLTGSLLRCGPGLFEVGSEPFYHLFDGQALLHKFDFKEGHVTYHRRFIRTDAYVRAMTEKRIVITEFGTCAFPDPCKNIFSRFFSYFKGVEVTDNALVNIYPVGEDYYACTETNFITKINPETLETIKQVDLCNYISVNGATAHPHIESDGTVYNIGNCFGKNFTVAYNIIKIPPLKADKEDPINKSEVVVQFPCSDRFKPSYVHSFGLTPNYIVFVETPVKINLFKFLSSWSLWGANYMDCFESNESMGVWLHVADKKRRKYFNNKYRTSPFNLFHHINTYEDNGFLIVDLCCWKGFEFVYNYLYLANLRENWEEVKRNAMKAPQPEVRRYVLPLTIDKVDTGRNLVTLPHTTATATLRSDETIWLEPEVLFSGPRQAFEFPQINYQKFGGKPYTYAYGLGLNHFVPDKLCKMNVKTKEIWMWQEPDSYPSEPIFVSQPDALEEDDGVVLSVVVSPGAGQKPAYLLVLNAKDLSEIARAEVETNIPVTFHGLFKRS
# VAP-1 = target: T2, VAP-1 (Mus musculus, UniProt O70423); assay: VAP-1 oxidation assay in mouse aorta homogenates; conditions: for Concentration of 16e in mouse aorta homogenates: substrate 16e 100 μM
# T2 sequence (O70423 1-765): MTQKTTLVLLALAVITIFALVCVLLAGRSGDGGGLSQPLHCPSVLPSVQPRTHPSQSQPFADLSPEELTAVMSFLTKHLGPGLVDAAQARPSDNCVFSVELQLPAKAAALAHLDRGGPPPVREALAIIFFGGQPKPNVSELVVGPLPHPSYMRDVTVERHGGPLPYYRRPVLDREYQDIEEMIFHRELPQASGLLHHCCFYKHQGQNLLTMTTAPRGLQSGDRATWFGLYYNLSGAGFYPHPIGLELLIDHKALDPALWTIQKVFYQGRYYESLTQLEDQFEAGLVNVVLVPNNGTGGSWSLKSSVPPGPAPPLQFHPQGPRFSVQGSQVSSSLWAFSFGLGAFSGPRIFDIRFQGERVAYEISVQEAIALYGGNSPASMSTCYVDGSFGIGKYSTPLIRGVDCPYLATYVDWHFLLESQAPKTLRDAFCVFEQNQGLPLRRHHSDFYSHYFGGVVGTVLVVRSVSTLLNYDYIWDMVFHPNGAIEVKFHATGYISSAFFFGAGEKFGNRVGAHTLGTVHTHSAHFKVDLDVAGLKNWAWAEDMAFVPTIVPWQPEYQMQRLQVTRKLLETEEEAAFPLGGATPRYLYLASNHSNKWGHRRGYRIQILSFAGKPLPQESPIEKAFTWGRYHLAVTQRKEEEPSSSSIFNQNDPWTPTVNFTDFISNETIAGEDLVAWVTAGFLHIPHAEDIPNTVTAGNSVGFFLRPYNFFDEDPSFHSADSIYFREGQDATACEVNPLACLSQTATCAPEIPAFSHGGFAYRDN
# in vivo = conditions: C57BL/6J, mouse, serum, intraperitoneal, 10 mg/kg
# CYP-450 enzymes = assay: Liver microsomes assay
# Sequence of RPE65 (Bos taurus, UniProt Q28175) (Q28175 whole entry): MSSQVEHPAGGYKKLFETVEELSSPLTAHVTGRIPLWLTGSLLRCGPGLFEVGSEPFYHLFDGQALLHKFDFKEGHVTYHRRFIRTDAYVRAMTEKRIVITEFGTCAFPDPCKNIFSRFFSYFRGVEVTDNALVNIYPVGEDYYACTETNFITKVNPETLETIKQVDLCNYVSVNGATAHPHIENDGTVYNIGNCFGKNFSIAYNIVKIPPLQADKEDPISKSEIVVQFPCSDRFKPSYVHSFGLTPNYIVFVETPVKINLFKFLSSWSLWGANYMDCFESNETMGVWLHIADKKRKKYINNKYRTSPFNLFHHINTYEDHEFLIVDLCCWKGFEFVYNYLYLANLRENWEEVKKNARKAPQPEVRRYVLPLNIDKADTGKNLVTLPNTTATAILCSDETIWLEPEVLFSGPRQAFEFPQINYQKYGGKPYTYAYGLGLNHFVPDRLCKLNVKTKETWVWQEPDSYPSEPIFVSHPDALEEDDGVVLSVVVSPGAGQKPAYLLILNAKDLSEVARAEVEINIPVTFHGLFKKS
structure (smiles),measurement,setting,value
"NC(CCO)c1cccc(OCC2CCCCC2)c1 (stereo not shown) [6a, 3-Amino-3-(3-(cyclohexylmethoxy)phenyl)propan-1-ol]",inhibition of RPE65 in vitro,RPE65 [1],lack of inhibitory activity; also recorded: no inhibition
"NC(CO)Cc1cccc(OCC2CCCCC2)c1 (stereo not shown) [6b, 2-Amino-3-(3-(cyclohexylmethoxy)phenyl)propan-1-ol]",inhibition of RPE65 in vitro,RPE65 [1],no inhibition
"NC(CO)Cc1ccc(OCC2CCCCC2)cc1 (stereo not shown) [6c, 2-Amino-3-(4-(cyclohexylmethoxy)phenyl)propan-1-ol]",inhibition of RPE65 in vitro,RPE65 [1],lack of dose-response relationship
"NCCc1cccc(OCC2CCCCC2)c1 [11b, 2-(3-(Cyclohexylmethoxy)phenyl)ethan-1-amine]",potency towards RPE65 relative to amine 11a,RPE65 [1]; ratio of IC50 values,7.6 times
same,RPE65 inhibition in vivo (in words),RPE65 [2],did not display hallmarks of inhibited RPE65 activity
"CC(CCN)c1cccc(OCC2CCCCC2)c1 (stereo not shown) [16b, 3-(3-(Cyclohexylmethoxy)phenyl)butan-1-amine]",RPE65 inhibition in vivo (in words),RPE65 [2],minor RPE65 inhibition
same,non-specific toxicity observation,"RPE65 [2]; all animals, even 24 hours after treatment",impaired body movement
same,11cRAL level in eye,RPE65 [2],253.5 ± 9.0 pmol/eye
same,RE level in eye,RPE65 [2],85.6 ± 12.7 pmol/eye
"CC(CN)Cc1cccc(OCC2CCCCC2)c1 (stereo not shown) [16c, (3-(Cyclohexylmethoxy)phenyl)-2-methylpropan-1-amine]",RPE65 inhibition in vivo (in words),RPE65 [2],minor RPE65 inhibition
same,11cRAL level in eye,RPE65 [2],370.5 ± 9.1 pmol/eye
same,RE level in eye,RPE65 [2],123.9 ± 36.4 pmol/eye
"CNCCC(O)c1cccc(OCC2CCCCC2)c1 (stereo not shown) [16e, 1-(3-(Cyclohexylmethoxy)phenyl)-3-(methylamino)propan-1-ol]",Concentration of 16e in mouse aorta homogenates,VAP-1; time 0,100.32 ± 0.95 µM
same,Concentration of 16e in mouse aorta homogenates,VAP-1; time 1,101.20 ± 0.89 µM
same,11cRAL per eye as % of the dark adapted (DA) level,RPE65 [2]; 24 hours post treatment,53%
same,RPE65 inhibition in vivo (in words),RPE65 [2],potent RPE65 inhibition
same,concentration at 24 h,in vivo,0 nM
same,hepatic clearance relative to 3a,CYP-450 enzymes; Cint ratio,5.5 times
same,rate of liver metabolism relative to 3a,CYP-450 enzymes; Vmax ratio,1.7 times
same,demethylation to 3a in liver microsomes,"CYP-450 enzymes; one-hour exposure, 200 μM",minor amount of demethylation
O=CC=Cc1cccc(OCC2CCCCC2)c1 [ACU-5201],Concentration of deaminated product ACU-5201 in mouse aorta homogenates,"VAP-1; formed from substrate 3a, time 0",0.00 ± 0.00 µM
same,Concentration of deaminated product ACU-5201 in mouse aorta homogenates,"VAP-1; formed from substrate 3a, time 1",19.71 ± 0.29 µM
same,Concentration of deaminated product ACU-5201 in mouse aorta homogenates,"VAP-1; formed from substrate 3a, time 4",54.81 ± 6.38 µM
same,Concentration of deaminated product ACU-5201 in mouse aorta homogenates,"VAP-1; formed from substrate 16e, time 1",0.48 ± 0.68 µM
same,Concentration of deaminated product ACU-5201 in mouse aorta homogenates,"VAP-1; formed from substrate 16e, time 4",3.76 ± 0.29 µM
